From the NIST ThermoML archive (doi:10.1021/je5004669)

Settings: 101.33 kPa, Liquid; for mass density: Vibrating tube method; for viscosity: Capillary tube (Ostwald / Ubbelohde) method

CCCN.CCCN.O=S(=O)([N-]S(=O)(=O)C(F)(F)F)C(F)(F)F.[Ag+]
Settings	mass density [kg/m3]	viscosity [mPa·s]
293 K	1637.5	–
293.2 K	–	46.09
298 K	1632	–
298.1 K	–	36
303 K	1626.3	–
303.2 K	–	31.07
308.2 K	–	27.03
313 K	1614.7	–
313.2 K	–	25.28
318.3 K	–	21.28
323 K	1603.5	–
323.2 K	–	18.21
328.2 K	–	15.85
333 K	1592.3	–
333.2 K	–	14.84
